From PubChem BioAssay (NCI)
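Following 48 hours of exposure in 96-well plates, responses at five concentrations were used to interpolate endpoints linearly. GI50 = concentration required for 50% inhibition of growth. TGI: total growth inhibition.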

Tests used:
Experiment in all cases: NCI-60 cell line screen, 48 h
LOX IMVI melanoma = system: LOX IMVI melanoma
HL-60(TB) leukemia = system: HL-60(TB) leukemia
OVCAR-3 ovarian = system: OVCAR-3 ovarian
MCF7 breast = system: MCF7 breast
HOP-62 NSCLC = system: HOP-62 NSCLC
UACC-257 melanoma = system: UACC-257 melanoma
MOLT-4 leukemia = system: MOLT-4 leukemia
A498 renal = system: A498 renal
SR leukemia = system: SR leukemia
NCI-H460 lung = system: NCI-H460 lung
SK-MEL-28 melanoma = system: SK-MEL-28 melanoma
SN12C renal = system: SN12C renal
RPMI-8226 leukemia = system: RPMI-8226 leukemia
HT29 colon = system: HT29 colon
UACC-62 melanoma = system: UACC-62 melanoma
OVCAR-8 ovarian = system: OVCAR-8 ovarian
NCI/ADR-RES ovarian = system: NCI/ADR-RES ovarian
IGROV1 ovarian = system: IGROV1 ovarian
RXF 393 renal = system: RXF 393 renal
BT-549 breast = system: BT-549 breast
SF-268 CNS = system: SF-268 CNS
TK-10 renal = system: TK-10 renal
SK-MEL-5 melanoma = system: SK-MEL-5 melanoma
M14 melanoma = system: M14 melanoma
NCI-H522 lung = system: NCI-H522 lung
UO-31 renal = system: UO-31 renal
SF-295 CNS = system: SF-295 CNS
CCRF-CEM leukemia = system: CCRF-CEM leukemia
SK-MEL-2 melanoma = system: SK-MEL-2 melanoma
MALME-3M melanoma = system: MALME-3M melanoma
T-47D breast = system: T-47D breast
SNB-75 CNS = system: SNB-75 CNS
ACHN renal = system: ACHN renal
OVCAR-4 ovarian = system: OVCAR-4 ovarian
SW-620 colon = system: SW-620 colon
A549 NSCLC = system: A549 NSCLC
NCI-H226 lung = system: NCI-H226 lung
HCT-116 colon = system: HCT-116 colon
SNB-19 CNS = system: SNB-19 CNS
OVCAR-5 ovarian = system: OVCAR-5 ovarian
COLO 205 colon = system: COLO 205 colon
PC-3 prostate = system: PC-3 prostate
HS 578T breast = system: HS 578T breast
MDA-MB-435 = system: MDA-MB-435
HCT-15 colon = system: HCT-15 colon
K-562 leukemia = system: K-562 leukemia
786-0 renal = system: 786-0 renal
KM12 colon = system: KM12 colon
CAKI-1 renal = system: CAKI-1 renal
HCC-2998 colon = system: HCC-2998 colon
NCI-H23 lung = system: NCI-H23 lung
U251 CNS = system: U251 CNS
MDA-MB-231 breast = system: MDA-MB-231 breast
DU-145 prostate = system: DU-145 prostate
SF-539 CNS = system: SF-539 CNS
EKVX NSCLC = system: EKVX NSCLC
HOP-92 NSCLC = system: HOP-92 NSCLC
SK-OV-3 ovarian = system: SK-OV-3 ovarian

## COc1ccc2c(c1)CCC1C2CC[C@@]2(C)C1CC1=CC(COC(C)=O)C3C(=O)c4ccccc4C(=O)C3C12 (stereo partly specified)
LOX IMVI melanoma
  GI50: > 100 µM
  TGI: > 100 µM
HL-60(TB) leukemia
  GI50: 76.3 µM
  TGI: > 100 µM
OVCAR-3 ovarian
  GI50: > 100 µM
  TGI: > 100 µM
MCF7 breast
  GI50: > 100 µM
  TGI: > 100 µM
HOP-62 NSCLC
  GI50: > 100 µM
  TGI: > 100 µM
UACC-257 melanoma
  GI50: > 100 µM
  TGI: > 100 µM
MOLT-4 leukemia
  GI50: > 100 µM
  TGI: > 100 µM
A498 renal
  GI50: > 100 µM
  TGI: > 100 µM
SR leukemia
  GI50: > 100 µM
  TGI: > 100 µM
NCI-H460 lung
  GI50: > 100 µM
  TGI: > 100 µM
SK-MEL-28 melanoma
  GI50: > 100 µM
  TGI: > 100 µM
SN12C renal
  GI50: > 100 µM
  TGI: > 100 µM
RPMI-8226 leukemia
  GI50: 51.2 µM
  TGI: > 100 µM
HT29 colon
  GI50: 94.9 µM
  TGI: > 100 µM
UACC-62 melanoma
  GI50: 47.3 µM
  TGI: > 100 µM
OVCAR-8 ovarian
  GI50: > 100 µM
  TGI: > 100 µM
NCI/ADR-RES ovarian
  GI50: > 100 µM
  TGI: > 100 µM
IGROV1 ovarian
  GI50: > 100 µM
  TGI: > 100 µM
RXF 393 renal
  GI50: 59.8 µM
  TGI: > 100 µM
BT-549 breast
  GI50: > 100 µM
  TGI: > 100 µM
SF-268 CNS
  GI50: > 100 µM
  TGI: > 100 µM
TK-10 renal
  GI50: > 100 µM
  TGI: > 100 µM
SK-MEL-5 melanoma
  GI50: > 100 µM
  TGI: > 100 µM
M14 melanoma
  GI50: > 100 µM
  TGI: > 100 µM
NCI-H522 lung
  GI50: > 100 µM
  TGI: > 100 µM
UO-31 renal
  GI50: 61.7 µM
  TGI: > 100 µM
SF-295 CNS
  GI50: > 100 µM
  TGI: > 100 µM
CCRF-CEM leukemia
  GI50: > 100 µM
  TGI: > 100 µM
SK-MEL-2 melanoma
  GI50: > 100 µM
  TGI: > 100 µM
MALME-3M melanoma
  GI50: > 100 µM
  TGI: > 100 µM
T-47D breast
  GI50: 90.6 µM
  TGI: > 100 µM
SNB-75 CNS
  GI50: 36.3 µM
  TGI: > 100 µM
ACHN renal
  GI50: 47.9 µM
  TGI: > 100 µM
OVCAR-4 ovarian
  GI50: > 100 µM
  TGI: > 100 µM
SW-620 colon
  GI50: > 100 µM
  TGI: > 100 µM
A549 NSCLC
  GI50: > 100 µM
  TGI: > 100 µM
NCI-H226 lung
  GI50: > 100 µM
  TGI: > 100 µM
HCT-116 colon
  GI50: > 100 µM
  TGI: > 100 µM
SNB-19 CNS
  GI50: > 100 µM
  TGI: > 100 µM
OVCAR-5 ovarian
  GI50: > 100 µM
  TGI: > 100 µM
COLO 205 colon
  GI50: > 100 µM
  TGI: > 100 µM
PC-3 prostate
  GI50: 48.4 µM
  TGI: > 100 µM
HS 578T breast
  GI50: 89 µM
  TGI: > 100 µM
MDA-MB-435
  GI50: > 100 µM
  TGI: > 100 µM
HCT-15 colon
  GI50: > 100 µM
  TGI: > 100 µM
K-562 leukemia
  GI50: 64.1 µM
  TGI: > 100 µM
786-0 renal
  GI50: > 100 µM
  TGI: > 100 µM
KM12 colon
  GI50: > 100 µM
  TGI: > 100 µM
CAKI-1 renal
  GI50: > 100 µM
  TGI: > 100 µM
HCC-2998 colon
  GI50: > 100 µM
  TGI: > 100 µM
NCI-H23 lung
  GI50: > 100 µM
  TGI: > 100 µM
U251 CNS
  GI50: > 100 µM
  TGI: > 100 µM
MDA-MB-231 breast
  GI50: 52.4 µM
  TGI: > 100 µM
DU-145 prostate
  GI50: > 100 µM
  TGI: > 100 µM
SF-539 CNS
  GI50: > 100 µM
  TGI: > 100 µM
EKVX NSCLC
  GI50: > 100 µM
  TGI: > 100 µM
HOP-92 NSCLC
  GI50: 1430 nM
  TGI: 49.7 µM
SK-OV-3 ovarian
  GI50: > 100 µM
  TGI: > 100 µM
